Source: US9988407B2, “Prodrugs of prostate specific membrane antigen (PSMA) inhibitor” (THE JOHNS HOPKINS UNIVERSITY, priority 2014, dated 2018)
Entries after “also recorded” stand apart in the source; their conditions may differ.

Assays:
[1] = Metabolic stability in human liver microsomes; format: in vitro ADME; conditions: 10 μM, 37° C.
Experimental: (§1) For metabolic stability, plasma (mouse, dog, monkey and human) and liver microsomes (mouse, dog, monkey and human) were used. For stability, prodrugs (10 μM) were spiked in each matrix and incubated in an orbital shaker at 37° C. At predetermined times (0, 30 and 60 min), 100 μL aliquots of the mixture in triplicate were removed and the reaction quenched by addition of three times the volume of ice cold acetonitrile spiked with the internal standard (losartan 5 μM). The samples were vortexed for 30 s and centrifuged 12000 g for 10 min. 50 μL supernatant diluted with 50 μL water was transferred to a 250 μL polypropylene vial sealed with a Teflon cap. Prodrug disappearance was monitored over time using a liquid chromatography and tandem mass spectrometry (LC/MS/MS) method as described below.
(§2) For LC/MS/MS, prodrugs were separated with Thermo Scientific Accela UPLC system coupled to Accela open autosampler on an Agilent C18 (100×2.1 mm id) UPLC column. The autosampler was temperature controlled and operating at 10° C. The mobile phase used for the chromatographic separation was composed of acetonitrile/water containing 0.1% formic acid and was run at a flow rate of 0.5 mL/minute for 4.5 minutes using gradient elution. The column effluent was monitored using TSQ Vantage triple-quadrupole mass spectrometric detector, equipped with an electrospray probe set in the positive ionization mode. Samples were introduced into the ionization source through a heated nebulized probe (350° C.).
(§3) For quantification of compound remaining, disappearance of prodrugs was measured from ratio of peak areas of analyte to IS. Percentage remaining was calculated in the following manner: […]

[2] = Metabolic stability in mouse liver microsomes; format: in vitro ADME; conditions: 10 μM, 37° C.
Experimental: as §1, §2, §3

[3] = Metabolic stability in mouse liver S9; format: in vitro ADME; conditions: Mouse S9, 10 μM, 37° C.
[4] = Metabolic stability in mouse plasma; format: in vitro ADME; conditions: 10 μM, 37° C.
Experimental: as §1, §2, §3

[5] = Metabolic stability in human plasma; format: in vitro ADME; conditions: 10 μM, 37° C.
Experimental: as §1, §2, §3

[6] = In vitro metabolic stability screen in plasma and liver subcellular fractions (results in words); format: in vitro ADME; conditions: 60 min incubation
Experimental: as §1, §2
For quantification of compound remaining, disappearance of prodrugs was measured from ratio of peak areas of analyte to IS. Percentage remaining was calculated in the following manner:
In general, the prodrugs were screened by an in vitro metabolic stability screen, and if positive, followed by an in vivo single time point pharmacokinetic study, and in select cases, an in vivo full time course pharmacokinetic study (FIG. 3). In this Example, the four acidic functional groups in 2-PMPA were systematically capped. The carboxylic acids were first masked with simple alkyl esters (Compounds 1, 2, and 3). In vitro chemical and metabolic stability of the prodrugs then were conducted, following 60 min incubation in plasma stability screens for prodrugs.

[7] = In vivo pharmacokinetics in mice, peroral, bioanalysis method 2 (2-PMPA release); conditions: mouse, in vivo
Experimental: Blood was obtained via cardiac puncture and tissue dissected at 0 min, 15 min, 30 min, 1 h, 2 h, and 4 h post dose (n=3 per time point). Single time point studies were conducted at 30 min (N=3) following dosing. Plasma was harvested from blood by centrifugation. Mean concentration-time data was used for pharmacokinetic (PK) analysis. Non-compartmental-analysis module in WinNonlin® (version 5.3) was used to assess pharmacokinetic parameters. Peak plasma concentrations (Cmax) and time to Cmax (Tmax) were the observed values. Area under the curve (AUC) was calculated by log-linear (p.o.) trapezoidal rule to the end of sample collection (AUClast) and extrapolated to infinity (AUC0-∞) by dividing the last quantifiable concentration by the terminal disposition rate constant (ke). […] The tissues were stored in −20° C. for 1 h and then homogenized. The calibration curve for the tissues was developed using naïve mouse brains from untreated animals as a matrix. For sciatic nerve, the nerves were weighed and homogenized in 50 μL methanol and the calibration curve was developed using naïve sciatic nerves from untreated animals as a matrix. The samples were vortexed and centrifuged. […] Supernatant was dried under a gentle stream of nitrogen at 45° C. and the residue reconstituted with 75 μL of acetonitrile and vortexed. 25 μL of derivatizing agent N-tert-Butyldimethysilyl-N-methyltrifluoro-acetamide (MTBSTFA) was added to microcentrifuge tubes, vortexed, and heated at ˜60 OC for 40 min. At the end of 40 min, the derivatized samples ˜75 μL were transferred to a 250 μL polypropylene vials and were analyzed via LC/MS/MS. Chromatographic analysis was performed using an Accela™ ultra high-performance system consisting of an analytical pump, and an autosampler coupled with TSQ Vantage mass spectrometer (Thermo Fisher Scientific Inc., Waltham Mass.). […] The total run time for each analyte was 5.0 min. Chromatographic analysis will be performed on Accela UPLC.

[8] = In vivo pharmacokinetics in mice, peroral, bioanalysis method 1 (total prodrug exposure); conditions: mice, oral dosing
Experimental: Blood was obtained via cardiac puncture and tissue dissected at 0 min, 15 min, 30 min, 1 h, 2 h, and 4 h post dose (n=3 per time point). Single time point studies were conducted at 30 min (N=3) following dosing. Plasma was harvested from blood by centrifugation. Mean concentration-time data was used for pharmacokinetic (PK) analysis. Non-compartmental-analysis module in WinNonlin® (version 5.3) was used to assess pharmacokinetic parameters. Peak plasma concentrations (Cmax) and time to Cmax (Tmax) were the observed values. Area under the curve (AUC) was calculated by log-linear (p.o.) trapezoidal rule to the end of sample collection (AUClast) and extrapolated to infinity (AUC0-∞) by dividing the last quantifiable concentration by the terminal disposition rate constant (ke). Terminal half-life (t1/2) was estimated from first order kinetics: t1/2=0.693/ke.
Briefly, prior to extraction, frozen samples were thawed on ice. For plasma extraction, 50 μL of the calibration standards or samples were transferred into silanized microcentrifuge tubes. Sample preparation involved a single liquid extraction by addition of 300 μL of methanol as extraction solution with internal standard (i.e., 5 μM of 2-PMSA in methanol), followed by vortexing for 30 s and then centrifugation at 12000 g for 10 min. Supernatant was transferred (˜250 μL) and evaporated to dryness at 40° C. under a gentle stream of nitrogen. The residue was reconstituted with 100 μL of derivatizing agent, n-butanol with 3N HCl, and samples were vortexed. The samples were heated at ˜60 OC in a shaking water bath for 30 min. At the end of 30 min, the derivatized samples were allowed to cool at room temperature and dried again for removal of derivatizing reagent, under a gentle stream of nitrogen. The residue was reconstituted in 100 μL of 30% acetonitrile in water v/v. The samples were vortexed and centrifuged again. ˜80 μL supernatant was transferred to a 250 μL polypropylene vial sealed with a Teflon cap and a volume of 10 μL was injected onto the ultra-performance liquid chromatography (UPLC) instrument for quantitative analysis. Chromatographic analysis was performed using an Accela™ ultra high-performance system consisting of an analytical pump, and an autosampler coupled with TSQ Vantage mass spectrometer (Thermo Fisher Scientific Inc., Waltham Mass.). […] The mobile phase used was composed of 0.1% formic acid in acetonitrile and 0.1% formic acid in H2O with gradient elution, starting with 20% (organic) linearly increasing to 65% up to 2.5 min, maintaining at 65% (2.5-3.5 min) and reequilibrating to 30% by 5 min. The total run time for each analyte was 5.0 min.

[9] = PK of JAM0388 after oral gavage, 2-PMPA in brain and plasma; format: in vivo; conditions: 30 mg/kg equivalent of 2-PMPA by oral gavage
PSMA = biological target: T1, PSMA (Mus musculus, UniProt O35409); experiment: PSMA activity in colonic or cecal mucosa of DSS-treated mice; format: in vivo; conditions: DSS-induced colitis, mucosa extract
T1 construct: from tissue; host or cells: colonic or cecal mucosa of C57/B6 mice with DSS-induced colitis
Experimental: PSMA activity was measured using extract from mucosa;
(§4) To investigate whether PSMA can be a suitable novel therapeutic target for clinical intervention against IBD, the effect of PSMA prototype inhibitors on three most widely used murine models of IBD was tested, including DNBS-induced colitis, DSS-induced colitis, and IL-10 knockout (IL-10 KO) mice (a genetic model that develops spontaneous colitis). In all three models, PSMA inhibitor treatment dramatically ameliorated symptoms. […] The improvement of these prolapse-retracting mice was unequivocally obvious in that their body weight increased dramatically when compared to that of untreated control IL-10 KO mice (FIG. 21C).

DSS-induced colitis = experiment: DSS-induced murine model of colitis; format: in vivo, C57/B6 mice
Experimental: Disease activity index (DAI), which positively correlated with the disease severity, was used as a measure for clinical activity. * P<0.05;
as §4

[10] = cited from earlier work
[11] = system: spontaneous colitis in IL-10 KO mice; experiment: Spontaneous colitis in IL-10 knockout mice; format: in vivo, IL-10 KO mice (C57/B6)
Experimental: as §4

EAE = conditions: cited from earlier work

T1 sequence (O35409 whole entry): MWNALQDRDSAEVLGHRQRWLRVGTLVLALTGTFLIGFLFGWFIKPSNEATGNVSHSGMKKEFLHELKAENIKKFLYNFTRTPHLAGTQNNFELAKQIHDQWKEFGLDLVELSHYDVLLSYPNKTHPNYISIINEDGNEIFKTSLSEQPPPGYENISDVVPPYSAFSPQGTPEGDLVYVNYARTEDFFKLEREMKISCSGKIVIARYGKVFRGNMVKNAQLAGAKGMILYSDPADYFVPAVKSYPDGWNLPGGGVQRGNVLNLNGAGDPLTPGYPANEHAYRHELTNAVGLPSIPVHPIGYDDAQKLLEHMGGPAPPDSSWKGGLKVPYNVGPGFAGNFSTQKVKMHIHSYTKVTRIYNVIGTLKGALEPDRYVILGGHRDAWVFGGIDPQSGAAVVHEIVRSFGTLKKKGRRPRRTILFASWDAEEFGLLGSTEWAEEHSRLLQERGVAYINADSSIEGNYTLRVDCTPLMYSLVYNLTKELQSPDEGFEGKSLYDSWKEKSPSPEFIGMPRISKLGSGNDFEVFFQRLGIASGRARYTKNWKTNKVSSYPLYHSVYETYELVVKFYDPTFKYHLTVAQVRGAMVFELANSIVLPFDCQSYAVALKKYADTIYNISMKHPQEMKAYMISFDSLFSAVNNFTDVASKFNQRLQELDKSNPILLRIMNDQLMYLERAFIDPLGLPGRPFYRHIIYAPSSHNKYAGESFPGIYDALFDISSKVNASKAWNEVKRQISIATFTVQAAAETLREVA

Molecule: CCOC(=O)CCC(CP(=O)(O)O)C(=O)OCC (centres unmarked) [Compound 2, [5-Ethoxy-2-(ethoxycarbonyl)-5-oxopentyl]phosphonic acid]
- Percentage remaining ([1]; 0 min): 100%
- Percentage remaining ([1]; 30 min): 88%
- Percentage remaining ([1]; 60 min): 73%
- Percentage remaining ([2]; 0 min): 100%
- Percentage remaining ([2]; 30 min): 99%
- Percentage remaining ([2]; 60 min): 88%
- Percentage remaining ([3]; 0 min): 100%
- Percentage remaining ([3]; 30 min): 103%
- Percentage remaining ([3]; 60 min): 103%
- Percentage remaining ([4]; 0 min): 100%
- Percentage remaining ([4]; 30 min): 99%
- Percentage remaining ([4]; 60 min): 83%
- Percentage remaining ([5]; 0 min): 100%
- Percentage remaining ([5]; 30 min): 81%
- Percentage remaining ([5]; 60 min): 59%
- in vitro metabolic stability [6]: too stable
- stability of carboxylic esters in vivo [7]: too stable in vivo
- permeability in vivo [8]: showed the most permeability

Molecule: 4-((diphenoxyphosphoryl)methyl)-5-(((isopropoxycarbonyl)oxy)methoxy)-5-oxopentanoic acid [Compound 30]
- brain levels of 2-PMPA ([9]; brain at 30 min and 5 h): low at both time points
- release of 2-PMPA in plasma ([9]; plasma at 30 min and 5 h): excellent release of 2-PMPA in plasma

Molecule: O=C(O)CCC(CP(=O)(O)O)C(=O)O (centres unmarked) [Compound 2-PMPA, 2-phosponomethyl pentanedioic acid]
- PSMA activity in colonic or cecal mucosa (PSMA): effectively suppresses PSMA activity
- dose response (DSS-induced colitis; 1, 10, and 100 mg/kg i.p., murine IBD models): dose dependent effect with 100 mg/kg provided the most benefit
- efficacy (DSS-induced colitis; i.p. administration at 100 mg/kg, DSS model): excellent efficacy
- oral availability F ([10]; 2-PMPA itself): < 1%
- concentrations in the brain ([10]; after 50-100 mg/kg intraperitoneal injection (i.p.) doses): 30 to 50 µM
- disease severity (macroscopic disease, prolapse), words ([11]; 100 mg/kg for 2 weeks): not only improvement of disease but even retraction of prolapse; also recorded: significantly reduced the disease severity
- complete retraction of prolapse, share of treated mice ([11]; 2 of the 20 mice): 10%
- efficacy ([11]; i.p. administration at 100 mg/kg, IL 10 knock out model): excellent efficacy
- cognitive function (EAE; EAE mice, Barnes maze): improves cognitive function; also recorded: cognition was significantly improved
- brain NAAG (EAE; EAE mice, post mortem analysis): elevates NAAG; also recorded: significant increase in brain NAAG
- physical severity of EAE (EAE; EAE mice): no difference in physical severity was observed
- fear conditioning, fear memory (EAE; EAE+2-PMPA vs EAE+Vehicle): significant difference between fear memory
